Assay results as given in patent US10508124B2, “Xanthene protective agent” (priority 2016, dated 2019).
In brackets after ≈: the same amount, converted by molar mass. Where a SMILES comes first, the peptide text is derived from it.

Experiment: physchem
Type: physicochemical
Method: Peptide used as a model: H-Phe-Leu-NH2
H-Phe-Leu-NH2 and H-Phe-Leu-NH-(TIPS2-Xtn) were synthesized, and each compound was saturated in cyclopentyl methyl ether (CPME) at 25° C. to measure the solubility of each compound.
In regard to H-Phe-Leu-NH2 not bound to a TIPS type protective agent, 0.5 mM of the peptide dissolved in CPME. […] Herein, H-Phe-Leu-NH2 and H-Phe-Leu-NH-(TIPS2-Xtn) have the following structures.

CC(C)C[C@H](NC(=O)[C@@H](N)Cc1ccccc1)C(N)=O [H-Phe-Leu-NH2, reference compound] (H-Phe-Leu-NH2)
solubility: 0.5 mM (≈ 0.139 mg/mL)

CC(C)C[C@H](NC(=O)[C@@H](N)Cc1ccccc1)C(=O)NC1c2ccc(OCCCCCCCCCCCO[Si](C(C)C)(C(C)C)C(C)C)cc2Oc2cc(OCCCCCCCCCCCO[Si](C(C)C)(C(C)C)C(C)C)ccc21 [H-Phe-Leu-NH-(TIPS2-Xtn)]
solubility: 586 mM (≈ 670 mg/mL)
solubility in CPME relative to unprotected H-Phe-Leu-NH2: ≥ 1100 times
